Measured values as given in patent US6486193B2, “3-substituted pyrrolidines useful as inhibitors of matrix metalloproteinases” (Aventis Pharmaceuticals Inc., priority 1998, dated 2002).

What was measured:
MMP-3 = target: T1, MMP-3 (Homo sapiens, UniProt P08254); assay: Determination of inhibition constant (Ki) for MMP-3, fluorogenic substrate; type: biochemical; conditions: footnote: results are identical for MMP-1, MMP-2, MMP-3, MMP-13 and MMP-14, read-out: MMP Ki app
T1 construct: The active MMP-3 was obtained by treatment of proMMP-3 with trypsin; endogenous in cells; host or cells: human rheumatoid synovial fibroblasts stimulated with macrophage-conditioned medium (secreted proenzyme purified from the medium)
Protocol: ProMMP-3 (EC 3.4.24.17; Stromelysin-1) was purified from culture medium of human rheumatoid synovial fibroblasts stimulated with macrophage-conditioned medium according to Okada, Y. et al., J. Biol. Chem. 261, 14245-14255 (1986). The active MMP-3 was obtained by treatment of proMMP-3 with trypsin (5 μg/mL) at 37° C. for 30 minutes, followed by addition of soybean trypsin inhibitor (50 μg/mL). Aliquots of the activated MMP-3 were stored at −20° C.
The activated MMP-3 is assayed using a fluorogenic substrate, Mca-Pro-Leu-Gly-Leu-Dpa-Ala-Arg-NH2, Knight, C.G. et al., FEBS Lett. 296, 263-266 (1992), at 37° C. in an assay buffer containing 50 mM Tris, pH 7.6, 0.2 M sodium chloride, 50 mM calcium chloride, and 0.02% Brij-35. The increase in fluorescence due to cleavage of Gly-Leu peptide bond by MMP-3 was monitored with Perkin-Elmer LS50B Fluorimeter (λex 328 nm, λem 393 nm, excitation slit 2.5, emission slit 10). Substrate and inhibitor stock solutions were made in DMF and 0.1 % HCl-DMF, respectively. For determination of Ki values for MMP-3 inhibitors, a series of intermediate inhibitor solutions were prepared in 0.1% HCl-DMF and 1 or 2 μL of the diluted inhibitor solution was mixed with 1 μL of 2 mM substrate solution in DMF in a quartz cuvette containing 2 mL of assay buffer. The enzyme (10 μL of 0.2 μM MMP-3 dilution in assay buffer) was added at the last to start the reaction. For routine measurement of a Ki value for a reversible, competitive inhibitor, the initial rates in the presence of at least four inhibitor concentrations (two concentrations above Ki and two concentrations below Ki) were measured using [S]=1 μM (<<Km) and [MMP-3]=1 nM. Under these conditions, the measured Ki, app is close to true Ki.
(§1) The K, for a competitive inhibitor is calculated using: V0/vi=(1+[I]/Ki, app) and Ki=Ki, app/(1+[S]/Km), where v0 is the initial rate in the absence of inhibitor, vi is the initial rate in the presence of inhibitor at the concentration of [I], [S] is the substrate concentration, and Km is the Michaelis constant. If slow binding is observed (i.e. if the approach to the binding equilibrium is slow), the final steady-state rate rather than the initial rate is taken as vi.

MMP-1 = target: T2, MMP-1 (Homo sapiens, UniProt P03956); assay: Determination of inhibition constant (Ki) for MMP-1, fluorogenic substrate; type: biochemical; conditions: footnote: results are identical for MMP-1, MMP-2, MMP-3, MMP-13 and MMP-14, read-out: MMP Ki app
T2 construct: The active MMP-1 was obtained by treatment of proMMP-1 with trypsin; endogenous in cells; host or cells: human rheumatoid synovial fibroblasts stimulated with macrophage-conditioned medium (secreted proenzyme purified from the medium)
T2 sequence (P03956 100-469): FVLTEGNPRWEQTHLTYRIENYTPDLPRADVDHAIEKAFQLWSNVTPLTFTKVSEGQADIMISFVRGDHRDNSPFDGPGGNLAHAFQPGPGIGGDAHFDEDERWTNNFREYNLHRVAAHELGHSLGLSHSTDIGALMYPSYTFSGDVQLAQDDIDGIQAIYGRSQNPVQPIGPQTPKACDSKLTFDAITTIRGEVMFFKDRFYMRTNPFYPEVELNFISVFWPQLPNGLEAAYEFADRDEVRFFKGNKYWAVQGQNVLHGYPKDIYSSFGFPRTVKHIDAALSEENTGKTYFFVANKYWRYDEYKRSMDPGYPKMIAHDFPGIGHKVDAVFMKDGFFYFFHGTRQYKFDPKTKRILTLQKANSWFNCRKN
Protocol: ProMMP-1 (EC 3.4.24.7; interstitial collagenase) was purified from culture medium of human rheumatoid synovial fibroblasts stimulated with macrophage-conditioned medium according to Okada, Y. et al., J. Biol. Chem. 261, 14245-14255 (1986). The active MMP-1 was obtained by treatment of proMMP-1 with trypsin (5 μg/mL) at 37° C. for 30 minutes, followed by addition of soybean trypsin inhibitor (50 μg/mL).
Determination of Inhibition Constant (Ki) for MMP-1 The activated MMP-1 is assayed using a fluorogenic substrate, Mca-Pro-Leu-Gly-Leu-Dpa-Ala-Arg-NH2, Knight, C. G. et al., FEBS Lett. 296, 263-266 (1992), at 37° C. in 2.0 mL of assay buffer containing 50 mM Tris, pH 7.6, 0.2 M sodium chloride, 50 mM calcium chloride, and 0.02% Brij-35. The increase in fluorescence due to cleavage of Gly-Leu peptide bond by MMP-3 was monitored with Perkin-Elmer LS50B Fluorimeter (λex328 nm, λem 393 nm, excitation slit 2.5, emission slit 10). Substrate and inhibitor stock solutions were made in DMF. For determination of Ki values for MMP-1 inhibitors, a series of intermediate inhibitor solutions were prepared in DMF and 1 or 2 μL of the diluted inhibitor solution was mixed with 1 μL of 2 mM substrate solution in DMF in a quartz cuvette containing 2 mL of assay buffer. The enzyme (10 μL of 0.2 μM MMP-3 dilution in assay buffer) was added at the last to start the reaction. For routine measurement of a Ki value for a reversible, competitive inhibitor, the initial rates in the presence of at least four inhibitor concentrations (two concentrations above Ki and two concentrations below Ki) were measured using [S]=1 μM (<<Km) and [MMP-1]=0.8 nM. Under these conditions, the measured Ki app is close to true Ki.
as §1, with “Ki” for “K,”, “v0/vi=(1+[I]/Ki,” for “V0/vi=(1+[I]/Ki,”

T1 sequence (P08254 100-477): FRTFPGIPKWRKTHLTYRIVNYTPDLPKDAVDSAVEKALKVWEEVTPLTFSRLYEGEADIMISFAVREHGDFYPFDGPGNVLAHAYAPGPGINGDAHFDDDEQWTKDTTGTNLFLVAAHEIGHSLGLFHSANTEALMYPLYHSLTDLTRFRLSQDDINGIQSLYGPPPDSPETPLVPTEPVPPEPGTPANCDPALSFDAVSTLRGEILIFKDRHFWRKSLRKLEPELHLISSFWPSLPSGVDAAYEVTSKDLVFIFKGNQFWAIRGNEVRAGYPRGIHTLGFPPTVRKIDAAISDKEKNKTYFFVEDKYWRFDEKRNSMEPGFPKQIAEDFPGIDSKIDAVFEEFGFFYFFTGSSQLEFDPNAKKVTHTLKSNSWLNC

With `CNC(=O)[C@@H](Cc1cccnc1)NC(=O)[C@@H]1C(Cc2ccccc2)CCN1C(=O)[C@@H](S)C(C)C` (stereo in doubt) [Compound 1f, (2S,3S)-3-Benzyl-1-((S)-2-mercapto-3-methyl-butanoyl)-pyrrolidine-2-carboxylic acid ((R)-1-methylcarbamoyl-2-pyridin-3-yl-ethyl)-amide] the Ki (MMP-3) was > 10 µM and the Ki (MMP-1) was > 10 µM.
With `CNC(=O)[C@H](Cc1ccc(O)cc1)NC(=O)[C@@H]1[C@@H](Cc2ccccc2)CCN1C(=O)[C@@H](S)C(C)C` [Compound 1a, (2S,3S)-3-Benzyl-1-((S)-2-mercapto-3-methyl-butanoyl)-pyrrolidine-2-carboxylic acid [(S)-2-(4-hydroxy-phenyl)-1-methylcarbamoyl-ethyl]-amide] the Ki (MMP-3) was > 10 µM and the Ki (MMP-1) was > 10 µM.
For `CNC(=O)[C@H](Cc1ccc(O)cc1)NC(=O)[C@@H]1[C@H](Cc2ccccc2)CCN1C(=O)[C@@H](S)C(C)C` [Compound 1b, (2S,3R)-3-Benzyl-1-((S)-2-mercapto-3-methyl-butanoyl)-pyrrolidine-2-carboxylic acid [(S)-2-(4-hydroxy-phenyl)-1-methylcarbamoyl-ethyl]-amide], the Ki (MMP-3) was > 10 µM and the Ki (MMP-1) was > 10 µM.
`CNC(=O)[C@H](Cc1cccnc1)NC(=O)[C@@H]1[C@@H](Cc2ccccc2)CCN1C(=O)[C@@H](S)C(C)C` [Compound 1c, (2S,3S)-3-Benzyl-1-((S)-2-mercapto-3-methyl-butanoyl)-pyrrolidine-2-carboxylic acid ((S)-1-methylcarbamoyl-2-pyridin-3-yl-ethyl)-amide] was tested, and the Ki (MMP-3) was > 10 µM and the Ki (MMP-1) was > 10 µM.
With `CNC(=O)[C@H](Cc1cccnc1)NC(=O)[C@@H]1[C@H](Cc2ccccc2)CCN1C(=O)[C@@H](S)C(C)C` [Compound 1d, (2S,3R)-3-Benzyl-1-((S)-2-mercapto-3-methyl-butanoyl)-pyrrolidine-2-carboxylic acid ((S)-1-methylcarbamoyl-2-pyridin-3-yl-ethyl)-amide] the Ki (MMP-3) was > 10 µM and the Ki (MMP-1) was > 10 µM.
With `CNC(=O)[C@@H](Cc1cccnc1)NC(=O)[C@@H]1[C@@H](Cc2ccccc2)CCN1C(=O)[C@@H](S)C(C)C` [Compound 1e, (2S,3S)-3-Benzyl-1-((S)-2-mercapto-3-methyl-butanoyl)-pyrrolidine-2-carboxylic acid ((R)-1-methylcarbamoyl-2-pyridin-3-yl-ethyl)-amide] the Ki (MMP-3) was > 10 µM and the Ki (MMP-1) was > 10 µM.
`CNC(=O)[C@@H](NC(=O)[C@@H]1[C@@H](Cc2ccccc2)CCN1C(=O)[C@@H](S)C(C)C)C(C)(C)C` [Compound 1g, (2S,3S)-3-Benzyl-1-((S)-2-mercapto-3-methyl-butanoyl)-pyrrolidine-2-carboxylic acid ((S)-2,2-dimethyl-1-methylcarbamoyl-propyl)-amide] was tested, and the Ki (MMP-3) was > 10 µM and the Ki (MMP-1) was > 10 µM.
In the case of `CNC(=O)[C@@H](NC(=O)[C@@H]1[C@H](Cc2ccccc2)CCN1C(=O)[C@@H](S)C(C)C)C(C)(C)C` [Compound 1h, (2S,3R)-3-Benzyl-1-((S)-2-mercapto-3-methyl-butanoyl)-pyrrolidine-2-carboxylic acid ((S)-2,2-dimethyl-1-methylcarbamoyl-propyl)-amide], the Ki (MMP-3) is reported as > 10 µM and the Ki (MMP-1) is reported as > 10 µM.
